Measured values from ChEMBL document CHEMBL1131561, “Peptidomimetic aminomethylene ketone inhibitors of interleukin-1 beta-converting enzyme (ICE)” (Bioorg Med Chem Lett, 1998).

target: T1, Caspase-1 (Homo sapiens, UniProt P29466); test: Inhibition of human recombinant IL-1 beta converting enzyme
T1 sequence (P29466 whole entry): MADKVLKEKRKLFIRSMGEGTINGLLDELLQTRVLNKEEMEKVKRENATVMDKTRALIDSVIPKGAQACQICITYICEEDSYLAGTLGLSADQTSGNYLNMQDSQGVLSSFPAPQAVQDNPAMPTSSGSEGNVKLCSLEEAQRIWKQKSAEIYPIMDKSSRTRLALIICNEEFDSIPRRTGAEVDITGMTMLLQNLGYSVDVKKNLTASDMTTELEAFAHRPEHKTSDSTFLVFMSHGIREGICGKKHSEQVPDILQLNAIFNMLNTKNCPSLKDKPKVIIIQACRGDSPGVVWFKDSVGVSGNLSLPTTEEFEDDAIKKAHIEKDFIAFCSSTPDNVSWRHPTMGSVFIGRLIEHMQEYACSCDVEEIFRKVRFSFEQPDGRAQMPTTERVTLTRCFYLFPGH

| SMILES | Ki |
| --- | --- |
| CCC(C(=O)NC(CC(=O)O)C(=O)CNC(=O)c1ccccc1)n1cccc(NC(=O)c2ccc3ccccc3c2)c1=O (stereo not given) | 57.5 nM |
| CCC(C(=O)NC(CC(=O)O)C(=O)Cn1ccccc1=O)n1cccc(NC(=O)c2ccc3ccccc3c2)c1=O (stereo not given) | 1650 nM |
| CCCC(=O)NCC(=O)C(CC(=O)O)NC(=O)C(CC)n1cccc(NC(=O)c2ccc3ccccc3c2)c1=O (stereo not given) | 81 nM |
| CCC(C(=O)N[C@@H](CC(=O)O)C(=O)CN(C)[C@@H](Cc1ccccc1)C(N)=O)n1cccc(NC(=O)c2ccc3ccccc3c2)c1=O (stereo not given in full) | 255 nM |
| CCC(C(=O)N[C@@H](CC(=O)O)C(=O)CN(C)CCCC(N)=O)n1cccc(NC(=O)c2ccc3ccccc3c2)c1=O (stereo not given in full) | 37 nM |
| CCC(C(=O)NC(CC(=O)O)C(=O)CN1CCNCC1)n1cccc(NC(=O)c2ccc3ccccc3c2)c1=O (stereo not given) | 410 nM |
| CCC(C(=O)NC(CC(=O)O)C(=O)Cn1ccc(=O)cc1)n1cccc(NC(=O)c2ccc3ccccc3c2)c1=O (stereo not given) | 395 nM |
| CCCCCC(=O)NCC(=O)C(CC(=O)O)NC(=O)C(CC)n1cccc(NC(=O)c2ccc3ccccc3c2)c1=O (stereo not given) | 34.3 nM |
| CCC(C(=O)N[C@@H](CC(=O)O)C(=O)CN[C@@H](Cc1ccccc1)C(N)=O)n1cccc(NC(=O)c2ccc3ccccc3c2)c1=O (stereo not given in full) | 78 nM |
| CCC(C(=O)NC(CC(=O)O)C(=O)CN1CCOCC1)n1cccc(NC(=O)c2ccc3ccccc3c2)c1=O (stereo not given) | 45 nM |
| CCC(C(=O)NC(CC(=O)O)C(=O)CN1CCN(C)CC1)n1cccc(NC(=O)c2ccc3ccccc3c2)c1=O (stereo not given) | 62.5 nM |
| CCC(C(=O)N[C@@H](CC(=O)O)C(=O)CN(C)Cc1ccccc1)n1cccc(NC(=O)c2ccc3ccccc3c2)c1=O (stereo not given in full) | 58 nM |
| CCC(C(=O)NC(CC(=O)O)C(=O)CNC(C)=O)n1cccc(NC(=O)c2ccc3ccccc3c2)c1=O (stereo not given) | 117 nM |

Stronger by Ki, values ahead:

| Ki | SMILES |
| --- | --- |
| 4 nM | CCC(C(=O)NC(CC(=O)O)C(=O)CN1CCCCC1)n1cccc(NC(=O)c2ccc3ccccc3c2)c1=O (stereo not given) |
| 4.8 nM | CCC(C(=O)N[C@@H](CC(=O)O)C(=O)CN(C)CCc1ccccc1)n1cccc(NC(=O)c2ccc3ccccc3c2)c1=O (stereo not given in full) |
| 1.79 nM | CCCCCCN(C)CC(=O)[C@H](CC(=O)O)NC(=O)C(CC)n1cccc(NC(=O)c2ccc3ccccc3c2)c1=O (stereo not given in full) |
| 1.15 nM | CCC(C(=O)N[C@@H](CC(=O)O)C(=O)CNCCCc1ccccc1)n1cccc(NC(=O)c2ccc3ccccc3c2)c1=O (stereo not given in full) |
| 7.3 nM | CCC(C(=O)NC(CC(=O)O)C(=O)CN1CCCC1)n1cccc(NC(=O)c2ccc3ccccc3c2)c1=O (stereo not given) |
| 11.6 nM | CCC(C(=O)NC(CC(=O)O)C(=O)CN1CCC(C(N)=O)CC1)n1cccc(NC(=O)c2ccc3ccccc3c2)c1=O (stereo not given) |
| 11.2 nM | CCC(C(=O)NC(CC(=O)O)C(=O)CN1CCSCC1)n1cccc(NC(=O)c2ccc3ccccc3c2)c1=O (stereo not given) |
| 3.05 nM | CCC(C(=O)N[C@@H](CC(=O)O)C(=O)CNCc1ccccc1)n1cccc(NC(=O)c2ccc3ccccc3c2)c1=O (stereo not given in full) |
| 0.37 nM | CCC(C(=O)N[C@@H](CC(=O)O)C(=O)CNCCc1ccccc1)n1cccc(NC(=O)c2ccc3ccccc3c2)c1=O (stereo not given in full) |
| 2.39 nM | CCCCCCN(CCCCCC)CC(=O)[C@H](CC(=O)O)NC(=O)C(CC)n1cccc(NC(=O)c2ccc3ccccc3c2)c1=O (stereo not given in full) |
| 22.8 nM | CCC(C(=O)N[C@@H](CC(=O)O)C(=O)CN(C)C)n1cccc(NC(=O)c2ccc3ccccc3c2)c1=O (stereo not given in full) |
| 0.76 nM | CCCCNCC(=O)[C@H](CC(=O)O)NC(=O)C(CC)n1cccc(NC(=O)c2ccc3ccccc3c2)c1=O (stereo not given in full) |
| 25 nM | CCC(C(=O)N[C@@H](CC(=O)O)C(=O)CN[C@H](Cc1ccccc1)C(N)=O)n1cccc(NC(=O)c2ccc3ccccc3c2)c1=O (stereo not given in full) |
| 2.3 nM | CCCCN(CC)CC(=O)[C@H](CC(=O)O)NC(=O)C(CC)n1cccc(NC(=O)c2ccc3ccccc3c2)c1=O (stereo not given in full) |
| 0.85 nM | CCCCCCNCC(=O)[C@H](CC(=O)O)NC(=O)C(CC)n1cccc(NC(=O)c2ccc3ccccc3c2)c1=O (stereo not given in full) |
| 3.1 nM | CCCCN(C)CC(=O)[C@H](CC(=O)O)NC(=O)C(CC)n1cccc(NC(=O)c2ccc3ccccc3c2)c1=O (stereo not given in full) |
| 8 nM | CCOC(=O)C1CCN(CC(=O)C(CC(=O)O)NC(=O)C(CC)n2cccc(NC(=O)c3ccc4ccccc4c3)c2=O)CC1 (stereo not given) |
